Source: article PMC8391127, “Triterpenoid–PEG Ribbons Targeting Selectivity in Pharmacological Effects” (Biomedicines, 2021)
Where two headings read alike, the source gives them in different places.

Tests used:
[1] = Self-assembly by UV-VIS spectrometry in methanol/water mixtures; type: physicochemical; conditions: 0-140 h
Method: The self-assembly of the selected compounds 8a, 12a, 8b, 12b, 4c, 6c, 6d, and 8d was measured using UV absorption in methanol/water mixtures with a constant concentration of the studied compound for 7 days in one-hour intervals on the first day, and in 24 h intervals all following days. The stock solutions of the studied compounds were prepared at a concentration of 1 mg·mL^−1 in water. Then, a series of methanol/water mixtures were prepared starting from a methanol/water ratio 100/0 down to 0/100 in 20% steps. The stock solutions of the studied compounds (0.15 mL) were added separately to each vial containing methanol/water mixtures (3 mL), and the UV spectra were recorded in the wavelength range of 200–400 nm. […] For the compounds 8a, 12a, 12b and 6d, the details are presented in the Supplementary Material; see Figure S2.
Supramolecular self-assembly was studied on the basis of the UV-VIS spectra of the compounds in several methanol/water mixtures stepwise during the time interval 0-140 h. Here we show compounds 8a, 12a, 12b and 6d as examples, with which the irregularities in the UV-VIS spectra were either well pronounced (8a and 12a; Figure S2), or no substantial irregularity was detected (12b and 6d).
Figure S2. UV-VIS spectra of 8a (top) and 12a (bottom) measured in the interval 0-140 h.
During that time interval a new maximum appeared at 300 nm wavelength, and the shape of the curves is different than in any of the other intervals of measurement. […]

Bacillus cereus = experiment: Antimicrobial screening, resazurine test; type: cell-based; conditions: for inhibition at 25 µg/mL / inhibition at 50 µg/mL / inhibition at 100 µg/mL: Bacillus cereus
Method: (§1) The resazurine test was used to evaluate this activity.
(§2) The cell inoculum was made in Mueller–Hinton broth (10 mL). Colonies of cells were inoculated from the solid medium that was cultivated for 24 h under optimum conditions. A part of the inoculum was diluted to get suspension with an optical density 0.6 to 0.9 McF. An aliquot amount (1 mL) was taken and diluted with additional volume of the medium (19 mL). The stored solutions of the tested compounds were made at a concentration c = 200 µg.mL^−1. The stored suspensions of the cells, MHB medium, solutions of the antibiotics specific for the given bacteria (vancomycin for S. aureus and E. faecalis, kanamycin for E. coli and P. aeruginosa, and tetracycline for B. cereus), and the solutions of the compounds were pipetted into the microtitration plates. Subsequently, a concentration sequence of the tested compounds was made (c = 100, 50, and 25 µg.mL^−1). The content of the microtitration plates was cultivated for 24 h under optimum conditions for the given bacteria. A solution of resazurine was made, based on a dilution of its stored solution (c = 0.15 mg.mL^−1; 2 mL) into the MHB medium (18 mL). Then, it was pipetted into the microtitration plates that were cultivated for an additional 1 h. Finally, fluorescence measurement (excitation at 560 nm, emission at 590 nm) was made, and the inhibition of the bacterium was determined.
(§3) 2. Antimicrobial screening tests
(§4) Antimicrobial activity of the target molecular ribbons 8a, 12a, 8b, 12b, 4c, 6c, 6d and 8d, and […]
(§5) aeruginosa, Staphylococcus aureus and Enterococcus faecalis. The resazurine test was used to […]
(§6) ribbons which have been achieved in this investigation.
(§7) Table S1. Antimicrobial activity, inhibition of the microorganism [%]
(§8) Comp. Staphylococcus aureus Comp. Escherichia coli […]
(§9) µg·mL-1 µg·mL-1 µg·mL-1 µg·mL-1 µg·mL-1 µg·mL-1
(§10) Comp. Bacillus cereus Comp. Pseudomonas aeruginosa

Enterococcus faecalis = experiment: Antimicrobial screening, resazurine test; type: cell-based; conditions: for inhibition at 25 µg/mL / inhibition at 50 µg/mL / inhibition at 100 µg/mL: Enterococcus faecalis, read-out: Inhibition of the microorganism
Method: as §1, §2, §3, §4, §5, §6, §7, §8, §9, §10

Escherichia coli = experiment: Antimicrobial screening, resazurine test; type: cell-based; conditions: Escherichia coli, read-out: Inhibition of the microorganism
Method: as §1, §2, §3, §4, §5, §6, §7, §8, §9, §10

Pseudomonas aeruginosa = experiment: Antimicrobial screening, resazurine test; type: cell-based
Method: as §1, §2, §3, §4, §5, §6, §7, §8, §9, §10

Staphylococcus aureus = experiment: Antimicrobial screening, resazurine test; type: cell-based; conditions: Staphylococcus aureus, read-out: Inhibition of the microorganism
Method: as §1, §2, §3, §4, §5, §6, §7, §8, §9, §10

[2] = B. cereus, c = 25 µg·mL-1, read-out: Inhibition of the microorganism
[3] = B. cereus, c = 50 µg·mL-1, read-out: Inhibition of the microorganism
[4] = B. cereus, c = 100 µg·mL-1, read-out: Inhibition of the microorganism
[5] = P. aeruginosa, c = 25 µg·mL-1, read-out: Inhibition of the microorganism
[6] = P. aeruginosa, c = 50 µg·mL-1, read-out: Inhibition of the microorganism
[7] = P. aeruginosa, c = 100 µg·mL-1, read-out: Inhibition of the microorganism
[8] = read-out: Inhibition of the microorganism

Question: For `CC1(C)CC[C@]2(C(=O)O)CC[C@]3(C)C(=CC[C@@H]4[C@@]5(C)CC[C@H](OCc6cn(CCOCCOCCOCCNC(=O)[C@]78CCC(C)(C)CC7C7=CC[C@@H]9[C@@]%10(C)CC[C@H](OCc%11cn(CCOCCOCCOCCNC(=O)[C@]%12%13CCC(C)(C)CC%12C%12=CC[C@@H]%14[C@@]%15(C)CC[C@H](O)C(C)(C)[C@@H]%15CC[C@@]%14(C)[C@]%12(C)CC%13)nn%11)C(C)(C)[C@@H]%10CC[C@@]9(C)[C@]7(C)CC8)nn6)C(C)(C)[C@@H]5CC[C@]43C)C2C1` (some centres unmarked) [12a], which “Irregularity in UV-VIS spectra (self-assembly)” value [1] is on record?
Answer: Irregularities were detected

Question: What does the source list for `CC1(C)C=C2C3CC[C@@H]4[C@@]5(C)CC[C@H](OCc6cn(CCOCCOCCOCCNC(=O)[C@]78CCC(C)(C)C=C7C7CC[C@@H]9[C@@]%10(C)CC[C@H](O)C(C)(C)[C@@H]%10CC[C@@]9(C)[C@]7(C)CC8)nn6)C(C)(C)[C@@H]5CC[C@@]4(C)[C@]3(C)CC[C@@]2(C(=O)O)CC1` (some centres unmarked) [8b]?
Answer: inhibition at 25 µg/mL (Bacillus cereus; [2]): 16 ± 2.4%; inhibition at 50 µg/mL (Bacillus cereus; [3]): 38 ± 5.7%; inhibition at 100 µg/mL (Bacillus cereus; [4]): 0 to 1%; inhibition at 25 µg/mL (Enterococcus faecalis; E. faecalis, c = 25 µg·mL-1): 20 ± 3%; inhibition at 50 µg/mL (Enterococcus faecalis; E. faecalis, c = 50 µg·mL-1): 43 ± 6.5%; inhibition at 100 µg/mL (Enterococcus faecalis; E. faecalis, c = 100 µg·mL-1): 54 ± 8.1%; inhibition at 25 µg/mL (Escherichia coli; E. coli, c = 25 µg·mL-1): 17 ± 2.6%; inhibition at 50 µg/mL (Escherichia coli; E. coli, c = 50 µg·mL-1): 25 ± 3.8%; inhibition at 100 µg/mL (Escherichia coli; E. coli, c = 100 µg·mL-1): 31 ± 4.7%; inhibition at 25 µg/mL (Pseudomonas aeruginosa; [5]): 33 ± 5%; inhibition at 50 µg/mL (Pseudomonas aeruginosa; [6]): 59 ± 8.9%; inhibition at 100 µg/mL (Pseudomonas aeruginosa; [7]): 60 ± 9%; inhibition at 25 µg/mL (Staphylococcus aureus; S. aureus, c = 25 µg·mL-1): 0 to 1%; inhibition at 50 µg/mL (Staphylococcus aureus; S. aureus, c = 50 µg·mL-1): 24 ± 3.6%; inhibition at 100 µg/mL (Staphylococcus aureus; S. aureus, c = 100 µg·mL-1): 77 ± 11.6%

Question: With `CC1(C)C=C2C3CC[C@@H]4[C@@]5(C)CC[C@H](OCc6cn(CCOCCOCCOCCNC(=O)[C@]78CCC(C)(C)C=C7C7CC[C@@H]9[C@@]%10(C)CC[C@H](OCc%11cn(CCOCCOCCOCCNC(=O)[C@]%12%13CCC(C)(C)C=C%12C%12CC[C@@H]%14[C@@]%15(C)CC[C@H](O)C(C)(C)[C@@H]%15CC[C@@]%14(C)[C@]%12(C)CC%13)nn%11)C(C)(C)[C@@H]%10CC[C@@]9(C)[C@]7(C)CC8)nn6)C(C)(C)[C@@H]5CC[C@@]4(C)[C@]3(C)CC[C@@]2(C(=O)O)CC1` (some centres unmarked) [12b] as the compound, how does the “Irregularity in UV-VIS spectra (self-assembly)” value [1] read?
Answer: No substantial irregularity was detected

Question: For `CC1(C)C=C2[C@H]3CC[C@@H]4[C@@]5(C)CC[C@H](O)C(C)(C)[C@@H]5CC[C@@]4(C)[C@]3(C)CC[C@@]2(C(=O)O)CC1` [1b, morolic acid, reference compound], which “Inhibition of the microorganism” value (Bacillus cereus; B. cereus, c = 25 µg·mL-1) is on record?
Answer: 78 ± 11.7%

Question: And the inhibition at 25 µg/mL (Bacillus cereus; read-out: Inhibition of the microorganism, B. cereus, c = 25 µg·mL-1)?
Answer: > 77%

Question: What about the inhibition at 50 µg/mL (Bacillus cereus; read-out: Inhibition of the microorganism, B. cereus, c = 50 µg·mL-1) of the same compound?
Answer: 76 ± 11.4%

Question: What about the inhibition at 100 µg/mL (Bacillus cereus; read-out: Inhibition of the microorganism, B. cereus, c = 100 µg·mL-1) of the same compound?
Answer: 75 ± 11.3%

Question: And the inhibition at 25 µg/mL (Enterococcus faecalis)?
Answer: 38 ± 5.7%

Question: What about the inhibition at 50 µg/mL (Enterococcus faecalis) of the same compound?
Answer: 64 ± 9.6%

Question: And the inhibition at 100 µg/mL (Enterococcus faecalis)?
Answer: 69 ± 10.4%

Question: What about the inhibition at 25 µg/mL (Escherichia coli) of the same compound?
Answer: 0 to 1%

Question: What about the inhibition at 50 µg/mL (Escherichia coli) of the same compound?
Answer: 2 ± 0.3%

Question: What about the inhibition at 100 µg/mL (Escherichia coli) of the same compound?
Answer: 0 to 1%

Question: What about the inhibition at 25 µg/mL (Pseudomonas aeruginosa; [8]) of the same compound?
Answer: 0 to 1%

Question: And the inhibition at 50 µg/mL (Pseudomonas aeruginosa; [8])?
Answer: 0 to 1%

Question: What about the inhibition at 100 µg/mL (Pseudomonas aeruginosa; [8]) of the same compound?
Answer: 0 to 1%

Question: What about the inhibition at 25 µg/mL (Staphylococcus aureus) of the same compound?
Answer: 21 ± 3.2%

Question: What about the inhibition at 50 µg/mL (Staphylococcus aureus) of the same compound?
Answer: 17 ± 2.6%

Question: And the inhibition at 100 µg/mL (Staphylococcus aureus)?
Answer: 47 ± 7%

Question: What does the source list for `CC1(C)CC[C@]2(C(=O)O)CC[C@]3(C)C(=CC[C@@H]4[C@@]5(C)CC[C@H](O)C(C)(C)[C@@H]5CC[C@]43C)[C@@H]2C1` [1a, Oleanolic acid, reference compound]?
Answer: Inhibition of the microorganism (Bacillus cereus; B. cereus, c = 25 µg·mL-1): 76 ± 11.4%; inhibition at 25 µg/mL (Bacillus cereus; [2]): > 77%; inhibition at 50 µg/mL (Bacillus cereus; [3]): 77 ± 11.6%; inhibition at 100 µg/mL (Bacillus cereus; [4]): 77 ± 11.6%; Inhibition of the microorganism (Enterococcus faecalis; E. faecalis, c = 25 µg·mL-1): 87 ± 13.0%; inhibition at 25 µg/mL (Enterococcus faecalis; E. faecalis, c = 25 µg·mL-1): > 87%; inhibition at 50 µg/mL (Enterococcus faecalis; E. faecalis, c = 50 µg·mL-1): 90 ± 13.5%; inhibition at 100 µg/mL (Enterococcus faecalis; E. faecalis, c = 100 µg·mL-1): 89 ± 13.4%; inhibition at 25 µg/mL (Escherichia coli; E. coli, c = 25 µg·mL-1): 0 to 1%; inhibition at 50 µg/mL (Escherichia coli; E. coli, c = 50 µg·mL-1): 0 to 1%; inhibition at 100 µg/mL (Escherichia coli; E. coli, c = 100 µg·mL-1): 0 to 1%; inhibition at 25 µg/mL (Pseudomonas aeruginosa; [5]): 0 to 1%; inhibition at 50 µg/mL (Pseudomonas aeruginosa; [6]): 0 to 1%; inhibition at 100 µg/mL (Pseudomonas aeruginosa; [7]): 0 to 1%; inhibition at 25 µg/mL (Staphylococcus aureus; S. aureus, c = 25 µg·mL-1): 0 to 1%; inhibition at 50 µg/mL (Staphylococcus aureus; S. aureus, c = 50 µg·mL-1): 8 ± 1.2%; inhibition at 100 µg/mL (Staphylococcus aureus; S. aureus, c = 100 µg·mL-1): 33 ± 5%
